Patent publication US12385066B2, “Retroviral transduction using poloxamers” (HELMHOLTZ ZENTRUM MUNCHEN—DEUTSCHES FORSCHU[…] GESUNDHEIT …, priority 2012, dated 2025)

How the values were obtained:
[1] = test system: HEK293T cells; assay: Cell proliferation assay (WST-1), cellular toxicity of adjuvants; format: cell-based, human
Experimental: In 6-well plates, triplicates of 2×10^5 cells per well were seeded and treated with defined adjuvant concentrations ranging from 1 μg/ml to 1000 μg/ml. After 24 hours incubation (at 37° C. with 5% C02) the medium was exchanged with fresh medium and cells were incubated for additional 48 hours. Cell proliferation was determined with the WST-1 colorimetric cell proliferation assay (Roche), according to manufacturer's instructions. Shortly, cells were trypsinized following 100 μl cell incubation with 10 μl WST-1 substrate (at 37° C. with 5% C02) for 2 hours. The assay was performed in 96-well microtiter plates and absorbance was determined at 490 nm using a TECAN-Infinite microplate reader (TECAN).
From potential adjuvant substances for lentiviral gene delivery we selected five representatives from the class of polycation-like and seven from the class of poloxamer-like chemical substances (Tab. 1). HEK293T cells were co-incubated with defined substance concentration for 24 hours, than medium was changed and cells were incubated for additional 48 hours prior measurements of cell proliferation. To test specific HEK293T growth inhibition by different substances we measured incorporation of WST1 substrate and correlated to control cell population without any substance co-incubation (FIG. 1). […]

[2] = test system: HEK293T cells; assay: Adjuvant-assisted lentiviral (GFP) gene transfer into HEK293T cells, flow cytometry; format: cell-based, human
Experimental: HEK293T cells (2×10^5 cells per well) were covered with 1 ml medium containing lentivirus (GP) with or without adjuvants. […] In given case, plates were centrifuged at 1,000 g for 60 min. After 24 hours incubation (at 37° C. with 5% CO2) the supernatant was exchanged with fresh medium and incubated for additional 48 hours. Combined microscopic analysis and documentation was done after 48 hours post infection (HBO 50/AC and AxioCam MRC, Carl Zeiss AG). […] Plates were centrifuged at 800 g for 90 min.
After lentiviral transduction, cells were washed in PBS and resuspended in PBS with 1 μg/mi propidium iodide (Invitrogen). After 10 min incubation on ice, 30,000 events were analyzed for forward/sideward scatter characteristics, green fluorescence light emission at 530 nm and red fluorescence light emission at 610 nm in FACSDiva (BD Biosciences).
HEK293T cells were covered (for 24 hours) with a mixture of LV with specified adjuvant in a maximum tolerable concentration (1000 μg/ml). LV carrying a CopGFP-coding transgene were applied in decreasing MOI from 2.5 to 0.0025. After medium change, cells were cultivated for another 48 hours and measured for green fluorescent light emission by flow cytometry.
HEK293T cells were covered (for 24 hours) with a mixture of LV as used in example 3 with specified adjuvant up to a maximum applied concentration of 5000 μg/ml Synperonic F108. […]

SMILES	cell proliferation / toxicity ([1]; increasing concentrations above 10 μg/ml, FIG. 1a)	cell proliferation / cellular viability ([1]; 1000 μg/ml, FIG. 1)	transduction efficiency (in words) ([2]; MOI 2.5, polybrene 10 μg/ml, others 1000 μg/ml, FIG. 2)	transduction/infection compared with polybrene-assisted LV infection (in words) ([2]; polybrene 10 μg/ml, others 1000 μg/ml and above)
CC(C)CCC[C@@H](C)[C@H]1CC[C@H]2[C@@H]3CC=C4C[C@@H](OC(=O)NCCN(C)C)CC[C@]4(C)[C@H]3CC[C@]12C.Cl [Cholesterylcarbamate, Cholesteryl-3β-N-(dimethyl-amino-ethyl)-carbamate-hydrochloride]	massive reduction in cell proliferation	–	–	–
CCCCCCCC/C=C\CCCCCCCC(=O)OC[C@H](COP(=O)(O)OCCN)OC(=O)CCCCCCC/C=C\CCCCCCCC [PEA, L-α-Phosphatidyl-ethanolamine-dioleoyl]	–	remained non-toxic	low transduction rates	failed to further increase this transduction level
